The source of these data is ChEMBL document CHEMBL2073908, “The effect of rifampin treatment on intestinal expression of human MRP transporters” (Am J Pathol, 2000).

In data set [1] the target is T1, ATP-binding cassette sub-family C member 2 (Homo sapiens, UniProt Q92887). Kind of data set: TP_TRANSPORTER: Immunohistochemistry in vivo, apical membrane of enterocytes. The format is functional, organism-based, Enterocyte apical membrane.
For data set [2], the target named is T1, ATP-binding cassette sub-family C member 2. Kind of data set: TP_TRANSPORTER: Northern blot in vivo, apical membrane of enterocyte. Type of data set: functional, organism-based.

T1 sequence (Q92887 whole entry): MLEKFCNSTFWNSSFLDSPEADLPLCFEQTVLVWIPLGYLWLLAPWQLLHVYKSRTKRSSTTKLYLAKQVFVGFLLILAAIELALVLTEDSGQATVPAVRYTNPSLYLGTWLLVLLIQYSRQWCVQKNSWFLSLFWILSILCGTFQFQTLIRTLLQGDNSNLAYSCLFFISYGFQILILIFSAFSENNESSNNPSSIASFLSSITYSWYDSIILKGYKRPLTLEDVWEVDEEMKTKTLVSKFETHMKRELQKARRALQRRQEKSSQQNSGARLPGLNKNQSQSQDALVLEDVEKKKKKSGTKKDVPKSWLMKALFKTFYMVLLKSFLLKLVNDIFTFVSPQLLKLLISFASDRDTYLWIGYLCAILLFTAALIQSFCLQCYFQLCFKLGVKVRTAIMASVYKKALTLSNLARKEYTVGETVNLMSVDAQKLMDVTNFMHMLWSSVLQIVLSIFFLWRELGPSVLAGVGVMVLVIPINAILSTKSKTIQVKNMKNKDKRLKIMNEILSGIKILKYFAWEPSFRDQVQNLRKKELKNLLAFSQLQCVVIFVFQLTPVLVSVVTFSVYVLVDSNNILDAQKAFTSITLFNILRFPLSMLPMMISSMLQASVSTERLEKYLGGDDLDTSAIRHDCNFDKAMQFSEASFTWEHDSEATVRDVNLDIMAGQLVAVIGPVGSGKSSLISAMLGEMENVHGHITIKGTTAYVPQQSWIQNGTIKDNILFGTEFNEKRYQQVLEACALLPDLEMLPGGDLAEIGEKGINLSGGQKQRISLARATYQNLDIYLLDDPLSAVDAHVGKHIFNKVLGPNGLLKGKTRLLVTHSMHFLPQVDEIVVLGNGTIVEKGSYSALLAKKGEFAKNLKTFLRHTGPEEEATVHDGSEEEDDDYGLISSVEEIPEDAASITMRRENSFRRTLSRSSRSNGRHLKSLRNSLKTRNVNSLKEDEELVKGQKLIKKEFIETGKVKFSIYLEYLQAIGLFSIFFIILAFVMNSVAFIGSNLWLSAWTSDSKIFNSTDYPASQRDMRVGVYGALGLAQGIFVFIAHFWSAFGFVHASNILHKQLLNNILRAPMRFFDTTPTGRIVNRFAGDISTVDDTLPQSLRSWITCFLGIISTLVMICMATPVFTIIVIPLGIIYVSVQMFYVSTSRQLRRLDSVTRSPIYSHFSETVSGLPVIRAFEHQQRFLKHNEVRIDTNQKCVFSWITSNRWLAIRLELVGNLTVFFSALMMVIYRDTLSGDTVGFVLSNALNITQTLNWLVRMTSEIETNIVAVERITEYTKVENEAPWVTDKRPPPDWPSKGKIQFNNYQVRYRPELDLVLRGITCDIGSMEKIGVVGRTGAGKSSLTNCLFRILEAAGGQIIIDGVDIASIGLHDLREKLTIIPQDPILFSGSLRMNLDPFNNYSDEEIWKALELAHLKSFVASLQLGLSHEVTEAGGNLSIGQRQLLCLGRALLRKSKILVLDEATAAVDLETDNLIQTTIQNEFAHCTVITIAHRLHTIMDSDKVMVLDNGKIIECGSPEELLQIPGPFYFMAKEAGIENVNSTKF

`CO[C@H]1/C=C/O[C@@]2(C)Oc3c(C)c(O)c4c(O)c(c(/C=N/N5CCN(C)CC5)c(O)c4c3C2=O)NC(=O)/C(C)=C\C=C\[C@H](C)[C@H](O)[C@@H](C)[C@@H](O)[C@@H](C)[C@H](OC(C)=O)[C@@H]1C` [RIFAMPIN]: the Activity entry in data set [1] and in data set [2] was “inducer [+]” throughout.
